Experiments:
Assay in all cases: relative viability (nuclei count vs DMSO), 5 days (fraction); higher = more cells survive
IPA-3 + Bortezomib = compound: C1=CC=C2C(=C1)C=CC(=C2SSC3=C(C=CC4=CC=CC=C43)O)O [IPA-3] + CC(C)C[C@H](NC(=O)[C@H](Cc1ccccc1)NC(=O)c1cnccn1)B(O)O [Bortezomib] (partner 0.002 µM)
In short: (§1)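 Lung cancer cell lines, seeded in 1536-well plates, were treated the following day by pin tool with a single drug or with five library-drug doses (not always all listed) in √10 steps on top of a fixed anchor-drug dose. Cells were fixed and nuclei stained in one step after 5 days, and nuclei were counted. Relative viability is the nuclei count for treated wells divided by that for vehicle wells, reported as medians of duplicate plates.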

IPA-3 + Pictilisib = compound: C1=CC=C2C(=C1)C=CC(=C2SSC3=C(C=CC4=CC=CC=C43)O)O [IPA-3] + CS(=O)(=O)N1CCN(Cc2cc3nc(-c4cccc5[nH]ncc45)nc(N4CCOCC4)c3s2)CC1 [Pictilisib] (partner 1 µM)
In short: as §1

IPA-3 + Luminespib = compound: C1=CC=C2C(=C1)C=CC(=C2SSC3=C(C=CC4=CC=CC=C43)O)O [IPA-3] + CCNC(=O)c1noc(-c2cc(C(C)C)c(O)cc2O)c1-c1ccc(CN2CCOCC2)cc1 [Luminespib] (partner 0.01 µM)
In short: as §1

RAF265 + Trametinib = compound: Cn1c(Nc2ccc(C(F)(F)F)cc2)nc2cc(Oc3ccnc(-c4ncc(C(F)(F)F)[nH]4)c3)ccc21 [RAF265] + CC(=O)Nc1cccc(-n2c(=O)n(C3CC3)c(=O)c3c(Nc4ccc(I)cc4F)n(C)c(=O)c(C)c32)c1 [Trametinib] (partner 0.02 µM)
In short: as §1

Cell Line | relative viability (IPA-3 + Bortezomib; first compound 0.2 µM) | relative viability (IPA-3 + Bortezomib; first compound 0.6325 µM) | relative viability (IPA-3 + Bortezomib; first compound 2 µM) | relative viability (IPA-3 + Bortezomib; first compound 6.325 µM) | relative viability (IPA-3 + Bortezomib; first compound 20 µM) | relative viability (IPA-3 + Pictilisib; first compound 0.2 µM) | relative viability (IPA-3 + Pictilisib; first compound 0.6325 µM) | relative viability (IPA-3 + Pictilisib; first compound 2 µM) | relative viability (IPA-3 + Pictilisib; first compound 6.325 µM) | relative viability (IPA-3 + Pictilisib; first compound 20 µM) | relative viability (IPA-3 + Luminespib; first compound 0.2 µM) | relative viability (IPA-3 + Luminespib; first compound 0.6325 µM) | relative viability (IPA-3 + Luminespib; first compound 2 µM) | relative viability (IPA-3 + Luminespib; first compound 6.325 µM) | relative viability (IPA-3 + Luminespib; first compound 20 µM) | relative viability (RAF265 + Trametinib; first compound 0.01 µM) | relative viability (RAF265 + Trametinib; first compound 0.03162 µM) | relative viability (RAF265 + Trametinib; first compound 0.1 µM) | relative viability (RAF265 + Trametinib; first compound 0.3162 µM) | relative viability (RAF265 + Trametinib; first compound 1 µM)
NCI-H1734 | 0.973 | 0.812 | 1.03 | 0.995 | 0.87 | 0.469 | 0.473 | 0.441 | 0.494 | 0.435 | 0.191 | 0.224 | 0.185 | 0.216 | 0.194 | 0.722 | 0.526 | 0.564 | 0.535 | 0.276
NCI-H1993 | 1.04 | 1.14 | 1.14 | 1.1 | 1.21 | 0.735 | 0.742 | 0.969 | 0.681 | 1.04 | 1.05 | 1.32 | 0.852 | 0.478 | 0.844 | 0.585 | 0.619 | 0.542 | 0.384 | 0.435
NCI-H2405 | 1.02 | 0.944 | 1.02 | 0.963 | 1.02 | 0.458 | 0.382 | 0.354 | 0.519 | 0.416 | 0.722 | 0.599 | 0.688 | 0.666 | 0.762 | 0.605 | 0.639 | 0.539 | 0.474 | 0.383
HOP-62 | 1.09 | 0.858 | 0.722 | 0.701 | 0.93 | 1.04 | 0.651 | 0.589 | 0.668 | 0.63 | 1.12 | 0.919 | 0.963 | 0.855 | 1.11 | 0.468 | 0.404 | 0.406 | 0.379 | 0.218
NCI-H650 | 0.972 | 0.83 | 0.798 | 0.858 | 1.22 | 1.15 | 0.89 | 0.922 | 1.17 | 1.15 | 0.964 | 0.851 | 0.733 | 0.805 | 1.06 | 1.05 | 0.972 | 1.05 | 0.569 | 0.328
BEN | 0.807 | 0.707 | 0.806 | 0.823 | 0.799 | 0.6 | 0.596 | 0.66 | 0.697 | 0.601 | 0.387 | 0.439 | 0.386 | 0.576 | 0.472 | 1.12 | 1.25 | 1.05 | 1.17 | 0.908
SW 1573 | 1.18 | 1.04 | 1.36 | 1.13 | 1.25 | 0.593 | 0.503 | 0.6 | 0.479 | 0.61 | 0.139 | 0.215 | 0.459 | 0.158 | 0.0643 | 0.665 | 0.597 | 0.556 | 0.54 | 0.255
ChaGo-K-1 | 1.03 | 1.1 | 0.861 | 1.08 | 1.31 | 0.728 | 0.785 | 0.663 | 0.824 | 0.824 | 0.734 | 0.539 | 0.58 | 0.632 | 0.58 | 0.903 | 0.965 | 0.859 | 0.776 | 0.632
NCI-H1755 | 1.02 | 0.905 | 0.946 | 0.997 | 1.08 | 0.455 | 0.358 | 0.397 | 0.345 | 0.536 | 0.447 | 0.421 | 0.416 | 0.479 | 0.597 | 0.753 | 0.727 | 0.688 | 0.647 | 0.467
NCI-H2023 | 1.19 | 0.9 | 1.05 | 1.17 | 1.11 | 0.275 | 0.243 | 0.248 | 0.301 | 0.258 | 0.93 | 0.617 | 0.674 | 0.712 | 0.693 | 0.608 | 0.508 | 0.533 | 0.55 | 0.266
LC-2-ad | 1 | 0.974 | 1.05 | 0.983 | 0.998 | 0.461 | 0.627 | 0.502 | 0.443 | 0.43 | 1.21 | 1.06 | 1.07 | 1.04 | 1.05 | 0.931 | 0.958 | 1.01 | 0.839 | 0.432
NCI-H1666 | 0.903 | 0.808 | 0.887 | 0.76 | 0.73 | 0.541 | 0.521 | 0.445 | 0.403 | 0.541 | 1.06 | 0.972 | 1.04 | 1.16 | 1.34 | 0.89 | 0.852 | 0.784 | 0.839 | 0.656
201T | 1.08 | 0.931 | 1.08 | 1.12 | 1.13 | 0.748 | 0.684 | 0.671 | 0.714 | 0.809 | 1.07 | 1.02 | 1.08 | 1.05 | 1.14 | 0.781 | 0.696 | 0.717 | 0.748 | 0.716
NCI-H2009 | 1.27 | 0.95 | 1.09 | 0.943 | 0.715 | 0.889 | 0.726 | 0.784 | 0.83 | 0.57 | 1.06 | 1.04 | 1.07 | 0.941 | 1.06 | 0.29 | 0.303 | 0.189 | 0.188 | 0.165
NCI-H2228 | 1.24 | 1.04 | 1.07 | 1.15 | 0.855 | 0.74 | 0.223 | 0.343 | 0.513 | 0.439 | 0.155 | 0.181 | 0.183 | 0.175 | 0.145 | 0.651 | 0.58 | 0.423 | 0.201 | 0.247
LU99A | 1.23 | 1.07 | 1.28 | 1.04 | 1.06 | 0.353 | 0.317 | 0.333 | 0.321 | 0.277 | 0.295 | 0.179 | 0.292 | 0.206 | 0.214 | 0.551 | 0.469 | 0.314 | 0.288 | 0.21

Source: the supplement of paper PMC10307832
